Test results reported in US10995090B2, “Substituted dihydrobenzofuran glycosidase inhibitors” (Asceneuron SA, priority 2016, dated 2021).

Biological target: His-Tagged hOGA (Homo sapiens (Human), UniProt O60502)
Test: Human O-GlcNAcase enzyme inhibition assay
Format: biochemical
Details: FL-GlcNAc substrate, 60 min at room temperature, pH 6.5; read-out: OGA IC50
Description: Example B01: Human O-GlcNAcase Enzyme Inhibition Assay
5 μl of the appropriate concentration of a solution of inhibitor in Mcllvaine's Buffer (pH 6.5) in 2% DMSO (for a dose response curve calculation) is added into each well of a 384-well plate (Greiner, 781900). Then, 20 nM of His-Tagged hOGA and 10 μM of FL-GlcNAc (Fluorescein mono-beta-D-(2-deoxy-2-N-acetyl) glucopyranoside; Marker Gene Technologies Inc, M1485) were added to the 384-well plate for a final volume of 20 μl. After incubation for 60 min at room temperature, the reaction was terminated by the addition of 10 μL of stop buffer (200 mM glycine, pH 10.75).

His-Tagged hOGA, sequence (O60502 whole entry): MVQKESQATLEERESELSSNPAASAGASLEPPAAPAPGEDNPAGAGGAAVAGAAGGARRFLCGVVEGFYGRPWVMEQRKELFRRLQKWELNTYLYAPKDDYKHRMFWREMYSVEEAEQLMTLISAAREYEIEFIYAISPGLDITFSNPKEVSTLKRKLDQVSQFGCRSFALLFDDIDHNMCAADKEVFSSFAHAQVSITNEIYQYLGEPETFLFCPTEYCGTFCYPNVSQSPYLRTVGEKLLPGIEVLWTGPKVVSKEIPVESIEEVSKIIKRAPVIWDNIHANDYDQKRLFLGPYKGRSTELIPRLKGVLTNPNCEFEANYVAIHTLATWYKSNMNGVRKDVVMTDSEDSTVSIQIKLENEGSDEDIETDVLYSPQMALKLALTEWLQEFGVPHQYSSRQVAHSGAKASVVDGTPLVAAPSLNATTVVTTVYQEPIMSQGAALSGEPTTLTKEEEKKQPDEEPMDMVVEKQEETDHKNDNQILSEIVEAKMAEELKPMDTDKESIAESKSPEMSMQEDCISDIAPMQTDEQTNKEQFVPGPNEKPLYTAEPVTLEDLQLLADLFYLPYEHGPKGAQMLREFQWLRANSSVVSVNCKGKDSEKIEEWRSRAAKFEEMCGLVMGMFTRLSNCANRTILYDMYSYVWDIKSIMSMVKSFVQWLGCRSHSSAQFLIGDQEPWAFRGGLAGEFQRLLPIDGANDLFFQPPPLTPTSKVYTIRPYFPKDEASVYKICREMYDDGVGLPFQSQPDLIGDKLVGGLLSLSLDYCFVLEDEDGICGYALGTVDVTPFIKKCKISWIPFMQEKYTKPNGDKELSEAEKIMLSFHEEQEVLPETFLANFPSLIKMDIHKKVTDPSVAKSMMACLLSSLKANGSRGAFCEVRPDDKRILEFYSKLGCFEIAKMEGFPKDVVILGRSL

SMILES: CC(c1ccc2c(c1)O[C@H](C)C2)N1CCN(c2ncc(S(C)(=N)=O)cn2)CC1 (stereo partly drawn) [Example 20, imino(methyl)(2-(4-(1-((R)-2-methyl-2,3-dihydrobenzofuran-6-yl)ethyl)piperazin-1-yl)pyrimidin-5-yl)-λ^6-sulfanone]
- IC50: < 50 nM

SMILES: CC1Cc2ccc(C(C)N3CCN(c4ccc(S(C)(=O)=O)cc4)CC3)cc2O1 (racemic) [Example 7, 1-(1-(2-methyl-2,3-dihydrobenzofuran-6-yl)ethyl)-4-(4-(methylsulfonyl)phenyl)piperazine]
- IC50: 50 to 200 nM

SMILES: CC(c1ccc2c(c1)O[C@H](C)C2)N1CCN(c2ncc(S(C)(=O)=O)cn2)CC1 (stereo partly drawn) [Example 19, 2-(4-(1-((R)-2-methyl-2,3-dihydrobenzofuran-6-yl)ethyl)piperazin-1-yl)-5-(methylsulfonyl)pyrimidine]
- IC50: < 50 nM

SMILES: CC(=O)Nc1nnc(N2CCN(C(C)c3ccc4c(c3)O[C@@H](C)C4)CC2)s1 (stereo partly drawn) [Example 14, N-(5-(4-(1-((S)-2-methyl-2,3-dihydrobenzofuran-6-yl)ethyl)piperazin-1-yl)-1,3,4-thiadiazol-2-yl)acetamide]
- IC50: 200 to 1000 nM

SMILES: CC(=O)Nc1nnc(N2CCN(C(C)c3ccc4c(c3)OC(C)C4)CC2)s1 (racemic) [Example 1, N-(5-(4-(1-(2-methyl-2,3-dihydrobenzofuran-6-yl)ethyl)piperazin-1-yl)-1,3,4-thiadiazol-2-yl)acetamide]
- IC50: < 50 nM

SMILES: CC(c1ccc2c(c1)O[C@H](C)C2)N1CCN(c2ncc3c(n2)CCNC3=O)CC1 (stereo partly drawn) [Example 10, 2-(4-(1-((R)-2-methyl-2,3-dihydrobenzofuran-6-yl)ethyl)piperazin-1-yl)-7,8-dihydropyrido[4,3-d]pyrimidin-5(6H)-one]
- IC50: < 50 nM

SMILES: CC(=O)Nc1nnc(N2CCN(C(C)c3ccc4c(c3)O[C@H](C)C4)CC2)s1 (single isomer, unassigned) [Example 12]
- IC50: < 50 nM

SMILES: CC(c1ccc2c(c1)O[C@@H](C)C2)N1CCN(c2ncc3c(n2)CCNC3=O)CC1 (single isomer, unassigned) [Example 18, 2-(4-((S)-1-((S)-2-methyl-2,3-dihydrobenzofuran-6-yl)ethyl)piperazin-1-yl)-7,8-dihydropyrido[4,3-d]pyrimidin-5(6H)-one or 2-(4-((R)-1-((S)-2-methyl-2,3-dihydrobenzofuran-6-yl)ethyl)piperazin-1-yl)-7,8-dihydropyrido[4,3-d]pyrimidin-5(6H)-one]
- IC50: 50 to 200 nM

SMILES: CC(=O)Nc1nnc(N2CCN(C(C)c3ccc4c(c3)OC(C)(C)C4)CC2)s1 (racemic) [Example 4, N-(5-(4-(1-(2,2-dimethyl-2,3-dihydrobenzofuran-6-yl)ethyl)piperazin-1-yl)-1,3,4-thiadiazol-2-yl)acetamide]
- IC50: 1000 to 10000 nM

SMILES: CC(=O)Nc1nnc(N2CCN(C(C)c3ccc4c(c3)O[C@@H](C)C4)CC2)s1 (single isomer, unassigned) [Example 16]
- IC50: 200 to 1000 nM

SMILES: CC(c1ccc2c(c1)O[C@@H](C)C2)N1CCN(c2ncc3c(n2)CCNC3=O)CC1 (stereo partly drawn) [Example 15, 2-(4-(1-((S)-2-methyl-2,3-dihydrobenzofuran-6-yl)ethyl)piperazin-1-yl)-7,8-dihydropyrido[4,3-d]pyrimidin-5(6H)-one]
- IC50: 200 to 1000 nM

SMILES: CC(c1ccc2c(c1)O[C@H](C)C2)N1CCN(c2n[nH]c(=O)s2)CC1 (stereo partly drawn) [Example 21, 5-(4-(1-((R)-2-methyl-2,3-dihydrobenzofuran-6-yl)ethyl)piperazin-1-yl)-1,3,4-thiadiazol-2(3H)-one]
- IC50: 50 to 200 nM

SMILES: CC(c1ccc2c(c1)OC(C)(C)C2)N1CCN(c2ncc3c(n2)CCNC3=O)CC1 (racemic) [Example 6, 2-(4-(1-(2,2-dimethyl-2,3-dihydrobenzofuran-6-yl)ethyl)piperazin-1-yl)-7,8-dihydropyrido[4,3-d]pyrimidin-5(6H)-one]
- IC50: 1000 to 10000 nM

SMILES: CC1Cc2ccc(C(C)N3CCN(c4ncc(S(C)(=N)=O)cn4)CC3)cc2O1 (racemic) [Example 3, Imino(methyl)(2-(4-(1-(2-methyl-2,3-dihydrobenzofuran-6-yl)ethyl)piperazin-1-yl)pyrimidin-5-yl)-λ^6-sulfanone]
- IC50: < 50 nM

SMILES: CC(=O)Nc1nnc(N2CCN(C(C)c3ccc4c(c3)O[C@H](C)C4)CC2)s1 (single isomer, unassigned) [Example 11]
- IC50: 200 to 1000 nM

SMILES: CC(c1ccc2c(c1)O[C@H](C)C2)N1CCN(c2ncc3c(n2)CCNC3=O)CC1 (single isomer, unassigned) [Example 13, 2-(4-((S)-1-((R)-2-methyl-2,3-dihydrobenzofuran-6-yl)ethyl)piperazin-1-yl)-7,8-dihydropyrido[4,3-d]pyrimidin-5(6H)-one or 2-(4-((R)-1-((R)-2-methyl-2,3-dihydrobenzofuran-6-yl)ethyl)piperazin-1-yl)-7,8-dihydropyrido[4,3-d]pyrimidin-5(6H)-one]
- IC50: < 50 nM

SMILES: CC(=O)Nc1nnc(N2CCN(C(C)c3ccc4c(c3)O[C@H](C)C4)CC2)s1 (stereo partly drawn) [Example 9, N-(5-(4-(1-((R)-2-methyl-2,3-dihydrobenzofuran-6-yl)ethyl)piperazin-1-yl)-1,3,4-thiadiazol-2-yl)acetamide]
- IC50: < 50 nM

SMILES: CC(c1ccc2c(c1)OC(C)(C)C2)N1CCN(c2ncc(S(C)(=N)=O)cn2)CC1 (racemic) [Example 5, (2-(4-(1-(2,2-dimethyl-2,3-dihydrobenzofuran-6-yl)ethyl)piperazin-1-yl)pyrimidin-5-yl)(imino)(methyl)-λ^6-sulfanone]
- IC50: 1000 to 10000 nM

SMILES: CC1Cc2ccc(C(C)N3CCN(c4ncc5c(n4)CCNC5=O)CC3)cc2O1 (racemic) [Example 2, 2-(4-(1-(2-methyl-2,3-dihydrobenzofuran-6-yl)ethyl)piperazin-1-yl)-7,8-dihydropyrido[4,3-d]pyrimidin-5(6H)-one]
- IC50: < 50 nM

SMILES: CC(=O)Nc1nnc(N2CCN(C(C)c3ccc4c(c3)O[C@@H](C)C4)CC2)s1 (single isomer, unassigned) [Example 17]
- IC50: 50 to 200 nM

SMILES: CC(=O)Nc1nnc(N2CCN(C(C)c3cnc4c(c3)OC(C)C4)CC2)s1 (racemic) [Example 8, N-(5-(4-(1-(2-methyl-2,3-dihydrofuro[3,2-b]pyridin-6-yl)ethyl)piperazin-1-yl)-1,3,4-thiadiazol-2-yl)acetamide]
- IC50: 200 to 1000 nM
